According to patent US6706663B2, “Herbicidal 3-heterocyclic substituted benzisothiazole and benzisoxazole compounds” (Wyeth, priority 2000, dated 2004):

What was measured:
[1] = system: SAGPY (Sagittaria pygmaea); assay: Flooded paddy, postemergence weed control; format: in vivo, L.; conditions: postemergence weeds, rated 3-4 weeks after treatment
Summary of the method: (§1)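 Weeds 3–5 cm tall and rice at 1.5–2.5 leaf stage in containers flooded 1.5–3 cm deep; compounds in 50/50 v/v aqueous/acetone injected into flood water at about 0.0320–0.2500 kg/ha. Greenhouse-held; visual 0–9 rating versus untreated control after three to four weeks.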

[2] = system: TRZAWR (Wheat, Winter, cv Riband); assay: Preemergence herbicidal evaluation; format: in vivo, Triticum aestivum; conditions: rated 4-5 weeks after treatment
Summary of the method: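 Seeds planted in potting soil cups and sprayed preemergence with aqueous acetone compound solution. Greenhouse-grown; rated 4–5 weeks after treatment on a 0-9 visual scale (stand, vigor, malformation, size, chlorosis, appearance) versus control.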

[3] = system: CYPIR (Cyperus iria); assay: Flooded paddy, preemergence weed control; format: in vivo; conditions: rated 3-4 weeks after treatment, 0-9 rating scale
Summary of the method: (§2)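 Greenhouse paddy test, preemergence. Seeds planted in the top 0.5 cm of silt loam soil, which remained flooded at 1.5–3 cm depth. Scored 0-9 by visual comparison with control.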

[4] = system: ORYSAT (Rice, Tebonnet); assay: Flooded paddy, post-transplant and postemergence rice tolerance; format: in vivo, Oryza sativa, (L.) Tebonnet; conditions: post-transplant rice, rated 3-4 weeks after treatment
Summary of the method: as §1

[5] = system: ECHORC (Echinochloa oryzoides); assay: Flooded paddy, preemergence weed control; format: in vivo, Echinochloa oryzoides (Ard.) Fritsch.; conditions: rated 3-4 weeks after treatment, 0-9 rating scale
Summary of the method: as §2

[6] = system: SAGPY (Sagittaria pygmaea); assay: Flooded paddy, preemergence weed control; format: in vivo, L.; conditions: rated 3-4 weeks after treatment, 0-9 rating scale
Summary of the method: as §2

[7] = system: ECHORC (Echinochloa oryzoides); assay: Flooded paddy, postemergence weed control; format: in vivo, Echinochloa oryzoides (Ard.) Fritsch.; conditions: postemergence weeds, rated 3-4 weeks after treatment
Summary of the method: as §1

[8] = system: CYPIR (Cyperus iria); assay: Flooded paddy, postemergence weed control; format: in vivo; conditions: postemergence weeds, rated 3-4 weeks after treatment
Summary of the method: as §1

[9] = system: IPOHE (Ipomoea hederacea); assay: Preemergence herbicidal evaluation; format: in vivo, (L.) Jacq.; conditions: rated 4-5 weeks after treatment
[10] = system: ECHCG (Echinochloa crus-galli); assay: Postemergence herbicidal evaluation; format: in vivo, (L.) Beau; conditions: for ECHCG herbicidal rating: postemergence
Summary of the method: (§3)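 Seedlings grown about two weeks in flats, sprayed, then kept under standard greenhouse care. Rated visually 4–5 weeks after treatment on a 0–9 scale (stand, vigour, malformation, size, chlorosis, overall appearance) relative to untreated control; repeat tests averaged.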

[11] = system: MOOVA (Monochoria vaginalis); assay: Flooded paddy, postemergence weed control; format: in vivo, Presl.; conditions: postemergence weeds, rated 3-4 weeks after treatment
Summary of the method: as §1

[12] = system: ZEAMX (Corn, Field); assay: Postemergence herbicidal evaluation; format: in vivo, Zea mays, L.; conditions: for ZEAMX herbicidal rating: postemergence
Summary of the method: as §3

[13] = system: GLXMAW (Soybean, Williams); assay: Preemergence herbicidal evaluation; format: in vivo, Glycine max, (L.) Merr. cv Williams; conditions: rated 4-5 weeks after treatment
[14] = system: AMBEL (Ambrosia artemisifolia); assay: Postemergence herbicidal evaluation; format: in vivo, L.; conditions: for AMBEL herbicidal rating: postemergence
Summary of the method: as §3

[15] = system: CASOB (Cassia obtusifolia); assay: Postemergence herbicidal evaluation; format: in vivo, L.; conditions: for CASOB herbicidal rating: postemergence
Summary of the method: as §3

[16] = system: CHEAL (Chenopodium album); assay: Postemergence herbicidal evaluation; format: in vivo, L.; conditions: for CHEAL herbicidal rating: postemergence
Summary of the method: as §3

[17] = system: CYPSE (Cyperus serotinus); assay: Flooded paddy, postemergence weed control; format: in vivo, Rottb.; conditions: postemergence weeds, rated 3-4 weeks after treatment
Summary of the method: as §1

[18] = system: ORYSAT (Rice, Tebonnet); assay: Postemergence herbicidal evaluation; format: in vivo, Oryza sativa, (L.) Tebonnet; conditions: for ORYSAT herbicidal rating: postemergence
Summary of the method: as §3

[19] = system: ORYSAT (Rice, Tebonnet); assay: Preemergence herbicidal evaluation; format: in vivo, Oryza sativa, (L.) Tebonnet; conditions: rated 4-5 weeks after treatment

Cc1cc(C)c(-c2nsc3ccc(-n4c(=O)cc(C(F)(F)F)n(C)c4=O)cc23)s1 [Compound 27, 3-[3-(3,5-dimethyl-2-thienyl)-1,2-benzisothiazol-5-yl]-1-methyl-6-(trifluoromethyl)uracil]
herbicide rating (0-9) SAGPY ([1]; 0.0320 kg/ha into flood water): 0.0
herbicide rating (0-9) SAGPY ([1]; 0.0620 kg/ha into flood water): 0.0
herbicide rating (0-9) SAGPY ([1]; 0.1250 kg/ha into flood water): 0.0
TRZAWR preemergence herbicidal rating ([2]; Rate 0.0620 kg/ha): 2.0
TRZAWR preemergence herbicidal rating ([2]; Rate 0.1250 kg/ha): 2.0
TRZAWR preemergence herbicidal rating ([2]; Rate 0.2500 kg/ha): 2.0
herbicidal rating, CYPIR ([3]; rate 0.0080 kg/ha): 4.5
herbicidal rating, CYPIR ([3]; rate 0.0320 kg/ha): 9.0
herbicidal rating, CYPIR ([3]; rate 0.1250 kg/ha): 9.0
herbicide rating (0-9) ORYSAT (rice tolerance) ([4]; 0.0320 kg/ha into flood water): 2.0
herbicide rating (0-9) ORYSAT (rice tolerance) ([4]; 0.0620 kg/ha into flood water): 4.0
herbicide rating (0-9) ORYSAT (rice tolerance) ([4]; 0.1250 kg/ha into flood water): 6.0
herbicidal rating, ECHORC ([5]; rate 0.0080 kg/ha): 6.5
herbicidal rating, ECHORC ([5]; rate 0.0320 kg/ha): 9.0
herbicidal rating, ECHORC ([5]; rate 0.1250 kg/ha): 9.0
herbicidal rating, SAGPY ([6]; rate 0.0080 kg/ha): 0.0
herbicidal rating, SAGPY ([6]; rate 0.0320 kg/ha): 1.7
herbicidal rating, SAGPY ([6]; rate 0.1250 kg/ha): 8.3
herbicide rating (0-9) ECHORC ([7]; 0.0320 kg/ha into flood water): 0.0
herbicide rating (0-9) ECHORC ([7]; 0.0620 kg/ha into flood water): 7.0
herbicide rating (0-9) ECHORC ([7]; 0.1250 kg/ha into flood water): 9.0
herbicide rating (0-9) CYPIR ([8]; 0.0320 kg/ha into flood water): 9.0
herbicide rating (0-9) CYPIR ([8]; 0.0620 kg/ha into flood water): 9.0
herbicide rating (0-9) CYPIR ([8]; 0.1250 kg/ha into flood water): 9.0
IPOHE preemergence herbicidal rating ([9]; Rate 0.1250 kg/ha): 4.0
IPOHE preemergence herbicidal rating ([9]; Rate 0.2500 kg/ha): 3.0
Postemergence herbicidal rating, ECHCG ([10]; rate 0.0320 kg/ha): 4.0
Postemergence herbicidal rating, ECHCG ([10]; rate 0.0620 kg/ha): 5.0
herbicide rating (0-9) MOOVA ([11]; 0.0320 kg/ha into flood water): 6.0
herbicide rating (0-9) MOOVA ([11]; 0.0620 kg/ha into flood water): 9.0
herbicide rating (0-9) MOOVA ([11]; 0.1250 kg/ha into flood water): 9.0
Postemergence herbicidal rating, ZEAMX ([12]; rate 0.0320 kg/ha): 5.0
Postemergence herbicidal rating, ZEAMX ([12]; rate 0.0620 kg/ha): 5.0
GLXMAW preemergence herbicidal rating ([13]; Rate 0.0620 kg/ha): 1.0
GLXMAW preemergence herbicidal rating ([13]; Rate 0.1250 kg/ha): 2.0
GLXMAW preemergence herbicidal rating ([13]; Rate 0.2500 kg/ha): 1.0
Postemergence herbicidal rating, AMBEL ([14]; rate 0.0320 kg/ha): 9.0
Postemergence herbicidal rating, AMBEL ([14]; rate 0.0620 kg/ha): 9.0
Postemergence herbicidal rating, CASOB ([15]; rate 0.0320 kg/ha): 3.0
Postemergence herbicidal rating, CASOB ([15]; rate 0.0620 kg/ha): 3.0
Postemergence herbicidal rating, CHEAL ([16]; rate 0.0320 kg/ha): 9.0
Postemergence herbicidal rating, CHEAL ([16]; rate 0.0620 kg/ha): 9.0
herbicide rating (0-9) CYPSE ([17]; 0.0320 kg/ha into flood water): 0.0
herbicide rating (0-9) CYPSE ([17]; 0.0620 kg/ha into flood water): 0.0
herbicide rating (0-9) CYPSE ([17]; 0.1250 kg/ha into flood water): 4.0
Postemergence herbicidal rating, ORYSAT ([18]; rate 0.0320 kg/ha): 4.5
Postemergence herbicidal rating, ORYSAT ([18]; rate 0.0620 kg/ha): 4.5
ORYSAT preemergence herbicidal rating ([19]; Rate 0.0620 kg/ha): 1.0
ORYSAT preemergence herbicidal rating ([19]; Rate 0.1250 kg/ha): 2.0
ORYSAT preemergence herbicidal rating ([19]; Rate 0.2500 kg/ha): 1.0

Cn1c(C(F)(F)F)cc(=O)n(-c2ccc3snc(-c4sccc4Cl)c3c2)c1=O [Compound 52, 3-[3-(3-chloro-2-thienyl)-1,2-benzisothiazol-5-yl]-1-methyl-6-(trifluoromethyl)uracil]
herbicide rating (0-9) SAGPY ([1]; 0.0320 kg/ha into flood water): 0.0
herbicide rating (0-9) SAGPY ([1]; 0.0620 kg/ha into flood water): 0.0
herbicide rating (0-9) SAGPY ([1]; 0.1250 kg/ha into flood water): 4.0
Preemergence herbicidal rating TRZAWR ([2]; Rate 0.0620 kg/ha): 1.0
Preemergence herbicidal rating TRZAWR ([2]; Rate 0.1250 kg/ha): 1.0
Preemergence herbicidal rating TRZAWR ([2]; Rate 0.2500 kg/ha): 3.0
herbicidal rating, CYPIR ([3]; rate 0.0080 kg/ha): 9.0
herbicidal rating, CYPIR ([3]; rate 0.0320 kg/ha): 9.0
herbicidal rating, CYPIR ([3]; rate 0.1250 kg/ha): 9.0
herbicide rating (0-9) ORYSAT (rice tolerance) ([4]; 0.0320 kg/ha into flood water): 4.0
herbicide rating (0-9) ORYSAT (rice tolerance) ([4]; 0.0620 kg/ha into flood water): 6.0
herbicide rating (0-9) ORYSAT (rice tolerance) ([4]; 0.1250 kg/ha into flood water): 7.0
herbicidal rating, ECHORC ([5]; rate 0.0080 kg/ha): 8.5
herbicidal rating, ECHORC ([5]; rate 0.0320 kg/ha): 9.0
herbicidal rating, ECHORC ([5]; rate 0.1250 kg/ha): 9.0
herbicidal rating, SAGPY ([6]; rate 0.0080 kg/ha): 0.0
herbicidal rating, SAGPY ([6]; rate 0.0320 kg/ha): 3.7
herbicidal rating, SAGPY ([6]; rate 0.1250 kg/ha): 7.7
herbicide rating (0-9) ECHORC ([7]; 0.0320 kg/ha into flood water): 6.0
herbicide rating (0-9) ECHORC ([7]; 0.0620 kg/ha into flood water): 9.0
herbicide rating (0-9) ECHORC ([7]; 0.1250 kg/ha into flood water): 8.0
herbicide rating (0-9) CYPIR ([8]; 0.1250 kg/ha into flood water): 9.0
Preemergence herbicidal rating IPOHE ([9]; Rate 0.0620 kg/ha): 2.0
Preemergence herbicidal rating IPOHE ([9]; Rate 0.1250 kg/ha): 3.0
Preemergence herbicidal rating IPOHE ([9]; Rate 0.2500 kg/ha): 6.0
ECHCG herbicidal rating ([10]; rate 0.0320 kg/ha): 0.0
ECHCG herbicidal rating ([10]; rate 0.0620 kg/ha): 1.0
ECHCG herbicidal rating ([10]; rate 0.1250 kg/ha): 5.0
herbicide rating (0-9) MOOVA ([11]; 0.0320 kg/ha into flood water): 2.0
herbicide rating (0-9) MOOVA ([11]; 0.0620 kg/ha into flood water): 2.0
herbicide rating (0-9) MOOVA ([11]; 0.1250 kg/ha into flood water): 9.0
ZEAMX herbicidal rating ([12]; rate 0.0320 kg/ha): 3.5
ZEAMX herbicidal rating ([12]; rate 0.0620 kg/ha): 3.5
ZEAMX herbicidal rating ([12]; rate 0.1250 kg/ha): 5.0
Preemergence herbicidal rating GLXMAW ([13]; Rate 0.0620 kg/ha): 1.5
Preemergence herbicidal rating GLXMAW ([13]; Rate 0.1250 kg/ha): 4.0
Preemergence herbicidal rating GLXMAW ([13]; Rate 0.2500 kg/ha): 9.0
AMBEL herbicidal rating ([14]; rate 0.0320 kg/ha): 9.0
AMBEL herbicidal rating ([14]; rate 0.0620 kg/ha): 9.0
AMBEL herbicidal rating ([14]; rate 0.1250 kg/ha): 9.0
CASOB herbicidal rating ([15]; rate 0.0320 kg/ha): 1.0
CASOB herbicidal rating ([15]; rate 0.0620 kg/ha): 7.0
CASOB herbicidal rating ([15]; rate 0.1250 kg/ha): 8.0
CHEAL herbicidal rating ([16]; rate 0.0320 kg/ha): 5.0
CHEAL herbicidal rating ([16]; rate 0.0620 kg/ha): 5.0
CHEAL herbicidal rating ([16]; rate 0.1250 kg/ha): 9.0
herbicide rating (0-9) CYPSE ([17]; 0.0620 kg/ha into flood water): 7.0
herbicide rating (0-9) CYPSE ([17]; 0.1250 kg/ha into flood water): 8.0
ORYSAT herbicidal rating ([18]; rate 0.0320 kg/ha): 3.0
ORYSAT herbicidal rating ([18]; rate 0.0620 kg/ha): 3.0
ORYSAT herbicidal rating ([18]; rate 0.1250 kg/ha): 4.0
Preemergence herbicidal rating ORYSAT ([19]; Rate 0.0620 kg/ha): 1.0
Preemergence herbicidal rating ORYSAT ([19]; Rate 0.1250 kg/ha): 1.5
Preemergence herbicidal rating ORYSAT ([19]; Rate 0.2500 kg/ha): 3.5
